Experimental data published in patent publication US20100173025A1, “FAT ABSORPTION INHIBITORY COMPOSITION” (NISSHIN PHARMA INC., priority 2007, published 2010).

Tested on: lipase (produced by Sigma)
Assay: Determination of lipase inhibitory activity (olive oil substrate emulsion, copper reagent, absorbance at 480 nm)
Type: biochemical
Conditions: 37° C., 30 minutes
Description: Ten micro litter of a solution containing the composition of the present invention obtained in Example 2 or 3 (diluted with a buffer to a final concentration of 0.01 or 0.1 mg/mL) or 10 μL of a solution containing the composition of the present invention obtained in Example 4 (at a final concentration of 1 mg/mL) was added to 80 μL, of a substrate emulsion (3.0 g of obtained by adding olive oil to 100 mL of a buffer described below, followed by sonication). The resultant was allowed to stand at 37° C. for 10 minutes. Ten micro litter of a lipase solution (diluted with a buffer to a concentration of lipase (produced by Sigma) of 1.0 mg/mL) was added thereto. The mixture was reacted with an enzyme reaction at 37° C. for 30 minutes. […] A coloring solution was added to the supernatant for determination of an absorbance at 480 nm. […] Results were calculated by Equation 1 described below with absorbance of the following: the composition of the present invention; a blank replaced the lipase solution with a buffer; and a control replaced a solution containing the composition of the present invention with a buffer. […]
Inhibition rate (%)=[1−[absorbance of the composition of the present invention−blank absorbance]/[control absorbance−blank absorbance]]

Question: How did the Lipase inhibition rate (final concentration 0.1 mg/mL) turn out when purothionin [Positive control] was run?
Answer: The Lipase inhibition rate was 76%.

Question: What about the Lipase inhibition rate (final concentration 1 mg/mL) of the same substance?
Answer: Its Lipase inhibition rate is 96%.
